Measured values published in patent US4508663A, “Process for preparing thiosulfenamide derivatives of N-phosphonomethylglycinonitriles” (Monsanto Company, priority 1983, dated 1985).

Assays:
Assay in all cases: post-emergence herbicidal activity, greenhouse
Format in all cases: in vivo
Details in all cases: Table I
[1] = test system: Cocklebur
Text: (§1) A good grade of top soil is placed in aluminum pans having holes in the bottom and compacted to a depth of 0.95 to 1.27 cm. from the top of the pan. A predetermined number of seeds of each of several dicotyledonous and monocotyledonous annual plant species and/or vegetative propagules for the perennial plant species are placed on the soil and pressed into the soil surface. The seeds and/or vegetative propagules are covered with soil and leveled. The pans are then placed on a sand bench in the greenhouse and watered from below as needed. After the plants reach the desired age (two to three weeks), each pan except for the control pans is removed individually to a spraying chamber and sprayed by means of an atomizer operating at a positive air pressure of approximately 1.46 kg/cm^2 absolute. The atomizer contains 6 ml. of a solution or suspension of the chemical. In that 6 ml., is an amount of a cyclohexanone emulsifying agent mixture to give a spray solution or suspension which contains about 0.4% by weight of the emulsifier. The spray solution or suspension contains a sufficient amount of the candidate chemical in order to give application rates corresponding to those set forth in the tables. The spray solution is prepared by taking an aliquot of a 1.0% by weight stock solution or suspension of the candidate chemical in an organic solvent such as acetone or tetrahydrofuran or in water. The emulsifying agent employed is a mixture comprising 35 weight percent butylamine dodecylbenzene sulfonate and 65 weight percent of a tall oil ethylene oxide condensate having about 11 moles of ethylene oxide per mole of tall oil. The pans are returned to the greenhouse and watered as before and the injury to the plants as compared to the control is observed at approximately two and four weeks as indicated in the tables under WAT and the results recorded. In some instances, the two-week observations are omitted.
(§2) The post-emergence herbicidal activity index used in Table I is as follows: […]

[2] = test system: Morningglory
Text: as §1, §2

[3] = test system: Yellow Nutsedge
Text: as §1, §2

[4] = test system: Barnyardgrass
Text: as §1, §2

[5] = test system: Quackgrass
Text: as §1, §2

[6] = test system: Downy Brome
Text: as §1, §2

[7] = test system: Velvetleaf
Text: as §1, §2

[8] = test system: Johnsongrass
Text: as §1, §2

[9] = test system: Smartweed
Text: as §1, §2

[10] = test system: Lambsquarters
Text: as §1, §2

Compound	post-emergence herbicidal activity index ([1]; 4 WAT, 11.2 kg/h)	post-emergence herbicidal activity index ([2]; 4 WAT, 11.2 kg/h)	post-emergence herbicidal activity index ([3]; 4 WAT, 11.2 kg/h)	post-emergence herbicidal activity index ([4]; 4 WAT, 11.2 kg/h)	post-emergence herbicidal activity index ([5]; 4 WAT, 11.2 kg/h)	post-emergence herbicidal activity index ([6]; 4 WAT, 11.2 kg/h)	post-emergence herbicidal activity index ([7]; 4 WAT, 11.2 kg/h)	post-emergence herbicidal activity index ([8]; 4 WAT, 11.2 kg/h)	post-emergence herbicidal activity index ([9]; 4 WAT, 11.2 kg/h)	post-emergence herbicidal activity index ([10]; 4 WAT, 11.2 kg/h)	other results
N#CCN(CP(=O)(Oc1ccccc1)Oc1ccccc1)SSCc1cccc(C(F)(F)F)c1 [VIII, Phosphonic acid, [[(cyanomethyl)[[[3-(trifluoromethyl)phenyl]methyl]dithio]amino]methyl]-, diphenyl ester]	2 (50-74% control)	1 (25-49% control)	2 (50-74% control)	2 (50-74% control)	0 (0-24% control)	2 (50-74% control)	1 (25-49% control)	3 (75-99% control)	0 (0-24% control)	4 (100% control)	post-emergence herbicidal activity index ([1]; 4 WAT, 5.6 kg/h): 1 (25-49% control); post-emergence herbicidal activity index ([2]; 4 WAT, 5.6 kg/h): 1 (25-49% control); post-emergence herbicidal activity index ([3]; 4 WAT, 5.6 kg/h): 2 (50-74% control); post-emergence herbicidal activity index ([4]; 4 WAT, 5.6 kg/h): 2 (50-74% control); post-emergence herbicidal activity index ([6]; 4 WAT, 5.6 kg/h): 1 (25-49% control); post-emergence herbicidal activity index ([7]; 4 WAT, 5.6 kg/h): 1 (25-49% control); post-emergence herbicidal activity index ([8]; 4 WAT, 5.6 kg/h): 3 (75-99% control); post-emergence herbicidal activity index ([9]; 4 WAT, 5.6 kg/h): 0 (0-24% control); post-emergence herbicidal activity index ([10]; 4 WAT, 5.6 kg/h): 4 (100% control)
N#CCN(CP(=O)(Oc1ccccc1)Oc1ccccc1)SSC1CCCCC1 [X, Phosphonic acid, [[(cyanomethyl)(cyclohexyldithio)amino]methyl]-, diphenyl ester]	2 (50-74% control)	1 (25-49% control)	0 (0-24% control)	1 (25-49% control)	0 (0-24% control)	1 (25-49% control)	1 (25-49% control)	1 (25-49% control)	0 (0-24% control)	3 (75-99% control)	post-emergence herbicidal activity index ([1]; 2 WAT, 5.6 kg/h): 0 (0-24% control); post-emergence herbicidal activity index ([2]; 2 WAT, 5.6 kg/h): 0 (0-24% control); post-emergence herbicidal activity index ([3]; 2 WAT, 5.6 kg/h): 0 (0-24% control); post-emergence herbicidal activity index ([4]; 2 WAT, 5.6 kg/h): 0 (0-24% control); post-emergence herbicidal activity index ([5]; 2 WAT, 5.6 kg/h): 0 (0-24% control); post-emergence herbicidal activity index ([6]; 2 WAT, 5.6 kg/h): 0 (0-24% control); post-emergence herbicidal activity index ([7]; 2 WAT, 5.6 kg/h): 1 (25-49% control); post-emergence herbicidal activity index ([8]; 2 WAT, 5.6 kg/h): 0 (0-24% control); post-emergence herbicidal activity index ([9]; 2 WAT, 5.6 kg/h): 0 (0-24% control); post-emergence herbicidal activity index ([10]; 2 WAT, 5.6 kg/h): 3 (75-99% control)
